Laboratory results published in patent publication US6416783B1, “Aspartic and malic acid inhibition of ss-glucuronidase” (Wisconsin Alumni Research Foundation, priority 1999, dated 2002).
“And” between values parts separate entries of the source, which are not always exact repeats. Equal entries are not always repeated. “Also recorded” adds a separate entry of the source. Where two headings read alike, the source gives them in different places.

Molecular target: T1, β-glucuronidase (Homo sapiens, UniProt P08236)
T1 construct: We used human breast milk collected and pooled from a newborn nursery as the β-glucuronidase source; from tissue
T1 sequence (P08236 23-651): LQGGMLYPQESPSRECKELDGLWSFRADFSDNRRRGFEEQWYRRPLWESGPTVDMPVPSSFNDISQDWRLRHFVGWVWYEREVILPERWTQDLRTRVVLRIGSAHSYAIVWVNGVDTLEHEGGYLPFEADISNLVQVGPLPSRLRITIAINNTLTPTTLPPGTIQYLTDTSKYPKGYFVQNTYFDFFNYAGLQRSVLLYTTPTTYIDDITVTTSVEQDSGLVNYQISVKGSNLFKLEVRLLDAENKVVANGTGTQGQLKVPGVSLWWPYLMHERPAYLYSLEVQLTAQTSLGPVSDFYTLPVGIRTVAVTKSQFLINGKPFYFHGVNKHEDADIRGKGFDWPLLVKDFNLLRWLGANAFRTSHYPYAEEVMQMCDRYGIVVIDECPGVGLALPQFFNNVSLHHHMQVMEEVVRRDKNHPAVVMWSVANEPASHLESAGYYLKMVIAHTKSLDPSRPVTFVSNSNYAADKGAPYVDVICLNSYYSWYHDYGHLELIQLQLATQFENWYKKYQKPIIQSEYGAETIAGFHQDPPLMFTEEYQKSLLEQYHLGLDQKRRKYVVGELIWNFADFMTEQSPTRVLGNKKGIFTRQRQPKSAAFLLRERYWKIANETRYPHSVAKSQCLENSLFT
Experiment: Standard Test: β-glucuronidase activity of human breast milk with MUG substrate (fluorescence)
Format: biochemical
Details: for mean (X̄) activity / X (mean activity): mean of 3; for Activity (pmole/tube/hr) / β-glucuronidase activity (row unlabelled): single replicates; for concentration with significant β-glucuronidase inhibitory activity: tested 10 to 10,000 μM; for X (mean activity) / β-glucuronidase activity (row unlabelled): in pmol/tube/h
Protocol: We first developed a standard assay procedure (the “Standard Test”). We used human breast milk collected and pooled from a newborn nursery as the β-glucuronidase source. The samples were stored at −20° C. The milk was thawed and diluted 10× with 0.2 M sodium acetate/glacial acetic acid (NaAC) buffer pH 4.5 just prior to being used. A 4.0 mM stock solution of 4-methylumbelliferyl β-D-glucuronide (MUG, Sigma M-9130 lot#75H3777) was prepared in 0.2 M NaAC buffer pH 4.5.
Triplicate test and blank tubes contained a reaction mixture consisting of 50 μL diluted breast milk and 50 μL of an inhibitor solution diluted with 0.2 M NaAC buffer pH 4.5. Controls were prepared that contained only 50 μL diluted breast milk and 50 μL 0.2 M NaAC buffer pH 4.5. The assay was started by adding 25 μl of the MUG (4.0 mM, 0.800 mM final concentration) to the test sample to start the reaction. The final volume of the reaction was 125 μL. Both blank and test samples were vortexed and incubated at 37° C. for 1 hour (or for shorter times if indicated).
The reaction was quenched in both the test and blank samples with 3.0 ml of glycine-carbonate (320 mM: 200 mM) buffer pH 10.0. The blank samples had 25 μl of the MUG (4.0 mM, 0.800 mM final) added to them and all tubes were vortexed.
The resulting fluorescence was read using a Perkin Elmer LS5-B fluorescence spectrophotometer (360 nm excitation, 445 nm emission, autorange scale). The amount of 4-methylumbelliferone (4-MU) released by the β-glucuronidase was calculated using a 4-MU quadratic standard curve and the Mathplot software. The velocity was calculated as pmoles of 4-MU formed per hour per ml undiluted breast milk.
We diluted pooled breast milk 20× with 0.2 M NaAC buffer pH 4.5. We diluted 2.2% w/v solution of Amicase (Sigma Cat. #A2427—a mixture of free amino acids with virtually no unhydrolyzed peptides, only minimal inorganic components are present, total nitrogen ˜12.8%, amino nitrogen ˜9.8%) with buffer 5×. We then incubated 50 μl milk with 50 μl buffer and Amicase. We then added 25 μl MUG to start the reaction. We then quenched with Na-carbonate buffer pH 10.0 and read fluorescence at 360 nm ex 445 nm em. Autorange scale. The mixture of amino acids was compared to controls and Nutramigen® as follows:
We then studied the effect of specific amino acid mixtures on β-glucuronidase activity. We diluted pooled breast milk 10× with 0.2 M NaAC buffer pH 4.5 and diluted 50×stock essential amino acid solution (Sigma Cat #M7020=L-arginine.HCl 6.32 g/L, L-cystine 1.2 g/L, L-histidine.HCl.H20 2.1 g/L, L-isoleucine 2.625 g/L, L-leucine 2.62 g/L, L-lyscine.HCl 3.625 g/L, L-methionine 0.755 g/L, L-phenylalanine 1.65 g/L, L-threonine 2.38 g/L, L-tryptophane 0.51 g/L, L-tyrosine 1.8 g/L, L-valine 2.34 g/L).
We also used a non-essential AA solution=Sigma Cat #M7145=L-alanine HCl 0.89 g/L, L-asparagine.H20 1.50 g/L, L-aspartic acid 1.33 g/L, L-glutamic acid 1.47 g/L, glycine 0.75 g/L, L-proline 1.15 g/L, L-serine 1.05 g/L.
We 5×diluted 100×stock essential AA solution. We incubated 50 μl diluted milk with 50 μl buffer (control), or the essential AA solution, or the non-essential AA solution, or Nutramigen® RTU, added 25 μl MUG to start the reaction, quenched with Na-carbonate buffer, and read fluorescence (360 nm excitation: 445 nm emission). The results are as follows:
We then analyzed inhibitory effect of each of the seven amino acids in the non-essential amino acid mixture. We diluted pooled breast milk 10× with 0.2 M NaAC buffer pH 4.5, and diluted Nutramigen® RTU (N) and Nutramigen® lipid-free supernatant (LFS) 5 fold with 0.2 M NaAC buffer pH 4.5.
We prepared stock solutions of each of the non-essential amino acids L-alanine (Ala), L-asparagine (Asn), L-aspartic acid (Asp), L-glutamic acid (Glu), glycine (Gly), L-proline (Pro), and L-Serine (Ser). All solutions were at pH 4.5. The final concentration of each amino acid in the assay was the same as when the amino acids were analyzed as a mixture. […]

[1] = Example 5, Conc. 10 μm, read-out: % (activity relative to control)
[2] = Example 5, Conc. 100 μm, read-out: % (activity relative to control)
[3] = Example 5, Conc. 1,000 μm, read-out: % (activity relative to control)
[4] = Example 5, Conc. 10,000 μm, read-out: % (activity relative to control)

C[C@H](N)C(=O)O [Ala, L-alanine]
remaining activity at 35.6 µg/mL (Example 3, 35.6 μg/ml, read-out: % (activity relative to control)): 99.5%
mean (X̄) activity (Example 3, 35.6 μg/ml): 671.0 pmole/tube/hr
Activity (pmole/tube/hr) (Example 3, 35.6 μg/ml): 686.2 pmole/tube/hr and 670.9 pmole/tube/hr and 656.0 pmole/tube/hr

NC(=O)C[C@H](N)C(=O)O [Asn, L-asparagine]
remaining activity at 61.4 µg/mL (Example 3, 61.4 μg/ml, read-out: % (activity relative to control)): 97.8%
mean (X̄) activity (Example 3, 61.4 μg/ml): 659.2 pmole/tube/hr
Activity (pmole/tube/hr) (Example 3, 61.4 μg/ml): 663.2 pmole/tube/hr and 667.6 pmole/tube/hr and 646.7 pmole/tube/hr

N[C@@H](CC(=O)O)C(=O)O [Asp, L-aspartic acid]
effect on β-glucuronidase activity (in words): significantly inhibit β-glucuronidase; also recorded: significant β-glucuronidase inhibitory activity
remaining activity at 53.2 µg/mL (Example 3, 53.2 μg/ml, read-out: % (activity relative to control)): 73.7%
mean (X̄) activity (Example 3, 53.2 μg/ml): 496.5 pmole/tube/hr
Activity (pmole/tube/hr) (Example 3, 53.2 μg/ml): 494.8 pmole/tube/hr and 500.8 pmole/tube/hr and 493.9 pmole/tube/hr
potency in β-glucuronidase inhibition relative to D-aspartic acid (Example 5): approximately 100 times
remaining activity at 10 µM [1]: 97.4%
remaining activity at 100 µM [2]: 89.3%
remaining activity at 1000 µM [3]: 53%
remaining activity at 10000 µM [4]: 8.4%
mean (X̄) activity (Example 5, Conc. 10 μm): 693.9 pmole/tube/hr
mean (X̄) activity (Example 5, Conc. 100 μm): 636.4 pmole/tube/hr
mean (X̄) activity (Example 5, Conc. 1,000 μm): 377.5 pmole/tube/hr
mean (X̄) activity (Example 5, Conc. 10,000 μm): 60.2 pmole/tube/hr
Activity (pmole/tube/hr) (Example 5, Conc. 10 μm): 692.5 pmole/tube/hr and 705.8 pmole/tube/hr and 683.2 pmole/tube/hr
Activity (pmole/tube/hr) (Example 5, Conc. 100 μm): 641.0 pmole/tube/hr and 640.1 pmole/tube/hr and 628.0 pmole/tube/hr
Activity (pmole/tube/hr) (Example 5, Conc. 1,000 μm): 405.5 pmole/tube/hr and 378.0 pmole/tube/hr and 349.1 pmole/tube/hr
Activity (pmole/tube/hr) (Example 5, Conc. 10,000 μm): 62.7 pmole/tube/hr and 59.2 pmole/tube/hr and 58.6 pmole/tube/hr
concentration with significant β-glucuronidase inhibitory activity (Example 5): > 10 µM
pH of maximum inhibition of β-glucuronidase (pH experiments): ~5

N[C@H](CC(=O)O)C(=O)O [D-asp, D-aspartic acid]
remaining activity at 10 µM [1]: 98.4%
remaining activity at 100 µM [2]: 97.5%
remaining activity at 1000 µM [3]: 98.1%
remaining activity at 10000 µM [4]: 86.2%
mean (X̄) activity (Example 5, Conc. 10 μm): 701.0 pmole/tube/hr
mean (X̄) activity (Example 5, Conc. 100 μm): 694.8 pmole/tube/hr
mean (X̄) activity (Example 5, Conc. 1,000 μm): 699.2 pmole/tube/hr
mean (X̄) activity (Example 5, Conc. 10,000 μm): 614.7 pmole/tube/hr
Activity (pmole/tube/hr) (Example 5, Conc. 10 μm): 706.2 pmole/tube/hr and 705.1 pmole/tube/hr and 691.7 pmole/tube/hr
Activity (pmole/tube/hr) (Example 5, Conc. 100 μm): 692.3 pmole/tube/hr and 709.8 pmole/tube/hr and 682.1 pmole/tube/hr
Activity (pmole/tube/hr) (Example 5, Conc. 1,000 μm): 704.2 pmole/tube/hr and 702.3 pmole/tube/hr and 691.2 pmole/tube/hr
Activity (pmole/tube/hr) (Example 5, Conc. 10,000 μm): 626.2 pmole/tube/hr and 614.9 pmole/tube/hr and 602.9 pmole/tube/hr
concentration with significant β-glucuronidase inhibitory activity (Example 5): 10,000 μM

O=C[C@H](O)[C@@H](O)[C@@H](O)[C@H](O)CO [D-gal, D(+)galactose]
remaining activity at 100 µM (Example 4, 0.1 mM, read-out: % (activity relative to control)): 99.1%
remaining activity at 1000 µM (Example 4, 1 mM, read-out: % (activity relative to control)): 99.2%
remaining activity at 10000 µM (Example 4, 10 mM, read-out: % (activity relative to control)): 99.2%
β-glucuronidase activity, % (of control) (Example 4, 0.1, 1, 10 mM): 99%
X (mean activity) (Example 4, 0.1 mM): 820.2
X (mean activity) (Example 4, 1 mM): 812.2
X (mean activity) (Example 4, 10 mM): 820.5
β-glucuronidase activity (row unlabelled) (Example 4, 0.1 mM): 816.8 and 812.8 and 830.9
β-glucuronidase activity (row unlabelled) (Example 4, 1 mM): 825.6 and 808.7 and 802.5
β-glucuronidase activity (row unlabelled) (Example 4, 10 mM): 806.6 and 833.7 and 821.3

N[C@@H](CCC(=O)O)C(=O)O [Glu, L-glutamic acid]
mean (X̄) activity (Example 3, 58.8 μg/ml): 660.0 pmole/tube/hr
Activity (pmole/tube/hr) (Example 3, 58.8 μg/ml): 658.8 pmole/tube/hr and 657.5 pmole/tube/hr and 663.7 pmole/tube/hr
remaining activity at 58.8 µg/mL (read-out: % (activity relative to control)): 97.9%

NCC(=O)O [Gly, glycine]
remaining activity at 30 µg/mL (Example 3, 30.0 μg/ml, read-out: % (activity relative to control)): 102%
mean (X̄) activity (Example 3, 30.0 μg/ml): 685.5 pmole/tube/hr
Activity (pmole/tube/hr) (Example 3, 30.0 μg/ml): 674.7 pmole/tube/hr and 695.4 pmole/tube/hr and 686.5 pmole/tube/hr

O=C(O)C[C@H](O)C(=O)O [L-malic acid]
effect on β-glucuronidase activity (in words): significantly inhibit β-glucuronidase; also recorded: contributed to the inhibition of β-glucuronidase at similar concentrations to L-aspartic acid
